Assay results from EP0378255B1, “2-Aminopyrimidinone derivatives” (JANSSEN PHARMACEUTICA N.V., priority 1989, dated 1990).
Where two headings read alike, the source gives them in different places.

Assays:
Assay type in all cases: in vivo
Tryptamine = assay: Combined Apomorphine, Tryptamine and Norepinephrine (ATN) test in rats: tryptamine part; conditions: Rattus norvegicus
Norepinephrine = assay: Combined Apomorphine, Tryptamine and Norepinephrine (ATN) test in rats: norepinephrine part; conditions: Rattus norvegicus; read-out: Combined ATN test in rats ED₅₀ values (NOR)
Protocol: (§1) Int. Pharmacodyn. Ther., 227, 238-253, 1977. Further the activity of the subject compounds as serotonin antagonists is evidenced by the experimental data obtained in the "Gastric Lesions induced by compound 48/80 in rats" test, described in U.S.-4,335,127. […] All tests were carried out following the procedures described in the cited references and the experimental data are shown in Table 8.

compound 48/80 [1] = assay: Gastric Lesions induced by compound 48/80 in rats (serotonin antagonism); conditions: Rattus norvegicus, read-out: Compound 48/80 tests ED₅₀ values Gastric lesions
Protocol: as §1

Apomorphine = assay: Combined Apomorphine, Tryptamine and Norepinephrine (ATN) test in rats: apomorphine part; conditions: Rattus norvegicus; read-out: Combined ATN test in rats ED₅₀ values (APO)
Wistar rats = assay: Sleep-wakefulness patterns in the rat (polygraphic EEG/EOG/EMG recording); conditions: for MEAN DURATION OF EPISODES PS / MEAN DURATION OF EPISODES SWS1 / MEAN DURATION OF EPISODES SWS2 / MEAN DURATION OF EPISODES W / NUMBER OF EPISODES PS / NUMBER OF EPISODES SWS1 / NUMBER OF EPISODES SWS2 / NUMBER OF EPISODES W: means ± SEM of 10 rats
Protocol: Under pentobarbital anesthesia (50 mg/kg i.p.) 10 adult male Wistar rats weighing 240 to 260 g were chronically implanted for standard polygraphic recording of electroencephalogram (EEG), electro-oculogram (EOG) and electromyogram (EMG). After a 8-10 day recovery period from surgery and habituation to the recording conditions ( 12 h light-dark schedule, light on at 9:00 am.), pharmacological tests were started. The animals received 0.04, 0.16 or 0.63 mg/kg of compound 39 dissolved in 1 mM tartaric acid and injected i.p. at the onset of the light period. A minimum of 3 recovery days was allowed between two treatments. Polygraphic recordings were scored visually and classified as being either wakefulness (W), light slow wave sleep (SWS1), deep slow wave sleep (SWS2) or paradoxical sleep (PS). Sleep-wakefulness parameters were analyzed for each of the two successive 4 h periods following the treatment and compared to baseline (vehicle injection under the same conditions). The amounts of sleep and wakefulness states were expressed as percentage of baseline recordings which represented means of two baseline values per animal. Statistical tests were performed by means of the two-tailed Student t-test.

compound 48/80 [2] = assay: Protection of Rats from compound 48/80 induced lethality (antihistaminic activity); conditions: Rattus norvegicus, read-out: Compound 48/80 tests ED₅₀ values Lethality
Protocol: as §1

[3] = convulsions, read-out: Combined ATN test in rats ED₅₀ values (TRY) convulsions
[4] = hyperaemia, read-out: Combined ATN test in rats ED₅₀ values (TRY) hyperaemia
[5] = 0-4h after treatment, 0.04 mg/kg i.p.
[6] = 0-4h after treatment, 0.16 mg/kg i.p.
[7] = 0-4h after treatment, 0.63 mg/kg i.p.
[8] = 4-8h after treatment, 0.04 mg/kg i.p.
[9] = 4-8h after treatment, 0.16 mg/kg i.p.
[10] = 4-8h after treatment, 0.63 mg/kg i.p.

Cc1nc(NCc2ccccn2)n(C)c(=O)c1CCN1CCC(c2noc3cc(F)ccc23)CC1 [Compound 19]
ED50 (Tryptamine; [3]): 0.31 mg/kg
ED50 (Tryptamine; [4]): 0.0025 mg/kg
ED50 (Norepinephrine): 0.08 mg/kg
ED50 (compound 48/80 [1]): 0.04 mg/kg
ED50 (Apomorphine): 0.08 mg/kg

CC(=O)Nc1nc(C)c(CCN2CCC(C(=O)c3ccc(F)cc3)CC2)c(=O)n1C [Compound 34]
ED50 (Tryptamine; [3]): 0.31 mg/kg
ED50 (Tryptamine; [4]): 0.005 mg/kg
ED50 (Norepinephrine): 1.25 mg/kg
ED50 (compound 48/80 [1]): 0.04 mg/kg
ED50 (Apomorphine): 0.31 mg/kg

CNc1nc(C)c(CCN2CCC(=C(c3ccc(F)cc3)c3ccc(F)cc3)CC2)c(=O)n1C [Compound 39, 5-[2-[4-[bis(4-fluorophenyl)methylene]-1-piperidinyl]ethyl]-3,6-dimethyl-2-(methylamino)-4(3H)-pyrimidinone]
MEAN DURATION OF EPISODES PS (Wistar rats; [5]): 2.1 ± 0.2 min
MEAN DURATION OF EPISODES SWS1 (Wistar rats; [5]): 0.8 ± 0.0 min
MEAN DURATION OF EPISODES SWS2 (Wistar rats; [5]): 4.7 ± 0.5 min
MEAN DURATION OF EPISODES W (Wistar rats; [5]): 2.6 ± 0.3 min
NUMBER OF EPISODES PS (Wistar rats; [5]): 4±1
NUMBER OF EPISODES SWS1 (Wistar rats; [5]): 33±3
NUMBER OF EPISODES SWS2 (Wistar rats; [5]): 32±3
NUMBER OF EPISODES W (Wistar rats; [5]): 26±3
MEAN DURATION OF EPISODES PS (Wistar rats; [6]): 2.0 ± 0.3 min
MEAN DURATION OF EPISODES SWS1 (Wistar rats; [6]): 0.9 ± 0.0 min
MEAN DURATION OF EPISODES SWS2 (Wistar rats; [6]): 5.8 ± 0.5 min
MEAN DURATION OF EPISODES W (Wistar rats; [6]): 2.9 ± 0.3 min
NUMBER OF EPISODES PS (Wistar rats; [6]): 3±1
NUMBER OF EPISODES SWS1 (Wistar rats; [6]): 28±2
NUMBER OF EPISODES SWS2 (Wistar rats; [6]): 27±2
NUMBER OF EPISODES W (Wistar rats; [6]): 23±1
MEAN DURATION OF EPISODES PS (Wistar rats; [7]): 2.2 ± 0.4 min
MEAN DURATION OF EPISODES SWS1 (Wistar rats; [7]): 0.8 ± 0.0 min
MEAN DURATION OF EPISODES SWS2 (Wistar rats; [7]): 5.9 ± 0.4 min
MEAN DURATION OF EPISODES W (Wistar rats; [7]): 2.7 ± 0.2 min
NUMBER OF EPISODES PS (Wistar rats; [7]): 3±1
NUMBER OF EPISODES SWS1 (Wistar rats; [7]): 26±2
NUMBER OF EPISODES SWS2 (Wistar rats; [7]): 27±2
NUMBER OF EPISODES W (Wistar rats; [7]): 22±1
doses giving significant effects (Wistar rats; 0.04, 0.16 or 0.63 mg/kg i.p., two-tailed Student t-test): Significant effects were observed from the lowest dose upwards
dose-related response (Wistar rats; 0.04 to 0.63 mg/kg i.p.): a clear dose-related response was obtained
sleep-wakefulness changes (SWS2, W, SWS1, PS) (Wistar rats; 0.04 to 0.63 mg/kg i.p. at the onset of the light period, 8 h recording period): dose-dependent increase of SWS2 combined with a dose-related deficit in W, SWS1 and PS
SWS2 episodes: duration and number (Wistar rats; 0.04 to 0.63 mg/kg i.p., summary of Table 7): marked prolongation of SWS2 episodes, whereas the number of episodes was reduced
MEAN DURATION OF EPISODES PS (Wistar rats; [8]): 1.9 ± 0.1 min
MEAN DURATION OF EPISODES SWS1 (Wistar rats; [8]): 0.7 ± 0.0 min
MEAN DURATION OF EPISODES SWS2 (Wistar rats; [8]): 3.5 ± 0.2 min
MEAN DURATION OF EPISODES W (Wistar rats; [8]): 2.0 ± 0.2 min
NUMBER OF EPISODES PS (Wistar rats; [8]): 13±1
NUMBER OF EPISODES SWS1 (Wistar rats; [8]): 35±3
NUMBER OF EPISODES SWS2 (Wistar rats; [8]): 41±3
NUMBER OF EPISODES W (Wistar rats; [8]): 26±2
MEAN DURATION OF EPISODES PS (Wistar rats; [9]): 2.1 ± 0.1 min
MEAN DURATION OF EPISODES SWS1 (Wistar rats; [9]): 0.7 ± 0.0 min
MEAN DURATION OF EPISODES SWS2 (Wistar rats; [9]): 3.9 ± 0.3 min
MEAN DURATION OF EPISODES W (Wistar rats; [9]): 2.0 ± 0.3 min
NUMBER OF EPISODES PS (Wistar rats; [9]): 12±1
NUMBER OF EPISODES SWS1 (Wistar rats; [9]): 35±2
NUMBER OF EPISODES SWS2 (Wistar rats; [9]): 39±2
NUMBER OF EPISODES W (Wistar rats; [9]): 23±2
MEAN DURATION OF EPISODES PS (Wistar rats; [10]): 2.1 ± 0.1 min
MEAN DURATION OF EPISODES SWS1 (Wistar rats; [10]): 0.7 ± 0.0 min
MEAN DURATION OF EPISODES SWS2 (Wistar rats; [10]): 3.7 ± 0.2 min
MEAN DURATION OF EPISODES W (Wistar rats; [10]): 1.9 ± 0.2 min
NUMBER OF EPISODES PS (Wistar rats; [10]): 12±1
NUMBER OF EPISODES SWS1 (Wistar rats; [10]): 34±2
NUMBER OF EPISODES SWS2 (Wistar rats; [10]): 40±2
NUMBER OF EPISODES W (Wistar rats; [10]): 26±2
effective dose, lower than that of ritanserin by (Wistar rats; comparison with ritanserin): 10 fold
sleep-wakefulness response (Wistar rats; doses of 0.04 and 0.16 mg/kg i.p.): significant sleep-wakefulness response

CCNc1nc(C)c(CCN2CCN(c3noc4ccccc34)CC2)c(=O)n1C [Compound 69]
ED50 (Tryptamine; [3]): 0.31 mg/kg
ED50 (Tryptamine; [4]): 0.00125 mg/kg
ED50 (Norepinephrine): 0.31 mg/kg
ED50 (compound 48/80 [1]): 0.00125 mg/kg
ED50 (compound 48/80 [2]): 0.02 mg/kg
ED50 (Apomorphine): 0.08 mg/kg

CCCNc1nc(C)c(CCN2CCN(c3nsc4ccccc34)CC2)c(=O)n1C [Compound 71]
ED50 (Tryptamine; [3]): 0.08 mg/kg
ED50 (Tryptamine; [4]): 0.005 mg/kg
ED50 (Norepinephrine): 1.25 mg/kg
ED50 (compound 48/80 [1]): 0.63 mg/kg
ED50 (compound 48/80 [2]): 0.16 mg/kg
ED50 (Apomorphine): 0.08 mg/kg

Cc1nc2n(C)ccn2c(=O)c1CCN1CCC(c2noc3cc(F)ccc23)CC1 [Compound 77]
ED50 (Tryptamine; [3]): 0.04 mg/kg
ED50 (Tryptamine; [4]): ≤ 0.00063 mg/kg
ED50 (Norepinephrine): 0.16 mg/kg
ED50 (compound 48/80 [1]): 0.04 mg/kg
ED50 (compound 48/80 [2]): 0.005 mg/kg
ED50 (Apomorphine): 0.04 mg/kg

Cc1nc2n(c(=O)c1CCN1CCC(c3noc4cc(F)ccc34)CC1)CCN2C [Compound 80]
ED50 (Tryptamine; [3]): 0.08 mg/kg
ED50 (Tryptamine; [4]): 0.00125 mg/kg
ED50 (Norepinephrine): 0.31 mg/kg
ED50 (compound 48/80 [1]): 0.04 mg/kg
ED50 (compound 48/80 [2]): 0.005 mg/kg
ED50 (Apomorphine): 0.08 mg/kg

CC1=NN(C)c2nc(C)c(CCN3CCC(c4noc5cc(F)ccc45)CC3)c(=O)n2C1 [Compound 86]
ED50 (Tryptamine; [3]): 0.04 mg/kg
ED50 (Tryptamine; [4]): 0.00125 mg/kg
ED50 (Norepinephrine): 0.08 mg/kg
ED50 (compound 48/80 [1]): 0.02 mg/kg
ED50 (Apomorphine): 0.04 mg/kg

Cc1nc2n(C)nc(C)n2c(=O)c1CCN1CCC(c2noc3cc(F)ccc23)CC1 [Compound 88]
ED50 (Tryptamine; [3]): 0.08 mg/kg
ED50 (Tryptamine; [4]): 0.00125 mg/kg
ED50 (Norepinephrine): 0.16 mg/kg
ED50 (compound 48/80 [1]): 0.04 mg/kg
ED50 (Apomorphine): 0.08 mg/kg
